In patent US9573954B2, “Pyrazolopyrimidine compounds” (University Health Network, priority 2012, dated 2017):
Like-named read-outs stand apart in the source and are kept apart here.

What was measured:
human TTK = biological target: T1, human TTK (Homo sapiens, UniProt P33981); test: TTK inhibition assay (indirect ELISA); assay type: biochemical
T1 construct: Active TTK was purchased from Invitrogen as an amino terminal GST fusion of full length human TTK; purchased Invitrogen
T1 sequence (P33981 1-857): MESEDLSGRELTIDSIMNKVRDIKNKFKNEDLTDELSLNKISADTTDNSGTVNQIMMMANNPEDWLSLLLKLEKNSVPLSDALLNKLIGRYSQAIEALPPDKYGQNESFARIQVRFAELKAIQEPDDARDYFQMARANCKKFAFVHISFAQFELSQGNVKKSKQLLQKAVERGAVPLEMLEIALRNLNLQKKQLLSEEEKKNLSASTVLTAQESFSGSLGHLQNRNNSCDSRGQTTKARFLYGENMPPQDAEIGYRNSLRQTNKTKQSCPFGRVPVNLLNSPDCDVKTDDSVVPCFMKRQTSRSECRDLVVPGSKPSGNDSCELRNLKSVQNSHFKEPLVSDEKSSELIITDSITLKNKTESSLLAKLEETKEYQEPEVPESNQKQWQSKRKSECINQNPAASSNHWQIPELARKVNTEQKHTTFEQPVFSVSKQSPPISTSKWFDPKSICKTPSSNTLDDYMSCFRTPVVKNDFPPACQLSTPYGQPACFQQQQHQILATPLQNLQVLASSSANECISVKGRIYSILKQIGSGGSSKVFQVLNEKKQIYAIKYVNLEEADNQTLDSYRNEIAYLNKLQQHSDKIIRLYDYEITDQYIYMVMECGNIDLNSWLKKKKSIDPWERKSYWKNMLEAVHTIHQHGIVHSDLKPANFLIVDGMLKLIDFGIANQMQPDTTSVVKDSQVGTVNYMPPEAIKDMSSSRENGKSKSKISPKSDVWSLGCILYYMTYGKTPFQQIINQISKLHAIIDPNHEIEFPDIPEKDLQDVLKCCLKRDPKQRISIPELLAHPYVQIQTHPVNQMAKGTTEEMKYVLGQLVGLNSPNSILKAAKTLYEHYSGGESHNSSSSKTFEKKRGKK
Procedure: Active TTK was purchased from Invitrogen as an amino terminal GST fusion of full length human TTK.
TTK activity was measured using an indirect ELISA detection system.
Compounds were pre-incubated in the presence of enzyme for 5 minutes prior to addition of ATP and the activity remaining quantified using the above described activity assay. The % Inhibition of a compound was determined using the following formula; % Inhibition=100×(1−(experimental value−background value)/(high activity control−background value)). The IC50 value was determined using a non-linear 4 point logistic curve fit (XLfit4, IDBS) with the formula; (A+(B/(1+((x/C)^D)))), where A=background value, B=range, C=inflection point, D=curve fit parameter.

[1] = test system: colon cancer cells (HCT116); test: Cancer cell line growth inhibition, Sulforhodamine B assay, HCT116; assay type: cell-based; settings: Homo sapiens, HCT-116, HCT116 colon cancer cell line; read-out: Cancer Cell Line GI50 Range HCT116
Procedure: (§1) Breast cancer cells (MDA-MB-231 and MDA-MB-468), colon cancer cells (HCT116) and ovarian cancer cells (PA-1 and OVCAR-3) were seeded (1000 to 4000 in 80 μl per well depending on the cell growth rate) into 96 well plates 24 hours before compound overlay. Compounds were prepared as 10 mM stock solutions in 100% DMSO which were diluted with DMEM (Dulbecco's Modified Eagle's Medium) cell growth Medium (Invitrogen, Burlington, ON, Canada) containing 10% FBS (Fetal Bovine Serum) to concentrations ranging from 50 nM to 250 μM. Aliquots (20 μl) from each concentration were overlaid to 80 μl of the pre-seeded cells in the 96 well plates to make final concentrations of 10 nM to 50 μM. The cells were cultured for 5 days before the Sulforhodamine B assay (SRB) was performed to determine the compound's cell growth inhibition activity.
(§2) Sulforhodamine B (purchased from Sigma, Oakville, ON, Canada) is a water-soluble dye that binds to the basic amino acids of the cellular proteins. Thus, colorimetric measurement of the bound dye provides an estimate of the total protein mass that is related to the cell number. the cells are fixed in situ by gently aspirating off the culture media and adding 50 μl ice cold 10% Trichloroacetic Acid (TCA) per well and incubate at 4° C. for 30-60 min, The plates are washed with H2O five times and allowed to air dry for 5 min. Addition of 50 μl 0.4% (w/v) SRB solution in 1% (v/v) acetic acid to each well and incubation for 30 min at RT completes the staining reaction. Following staining, plates are washed four times with 1% acetic acid to remove unbound dye and then allowed to air dry for 5 min. The stain is solubilized with 100 μl of 10 mM Tris pH 10.5 per well. Absorbance is read at 570 nm.
(§3) The percentage (%) of relative growth inhibition was calculated by comparing to DMSO treated only cells (100%). GI50's were determined for compounds with cytotoxic activity. The GI50 was calculated using GraphPad PRISM software (GraphPad Software, Inc., San Diego, Calif., USA).
(§4) In Table 1 below, GI50 value ranges for compound examples against breast cancer cell lines (MDA-MB-468), colon cancer cell lines (HCT116) and ovarian cancer cell lines (PA-1) are given.
In Table 2 below, GI50 value ranges for compound examples against breast cancer cell lines (MDA-MB-231), colon cancer cell lines (HCT116) and ovarian cancer cell lines (PA-1) are given.
(§5) In Table 3 below, GI50 value ranges for compound examples against breast cancer cell lines (MDA-MB-468), colon cancer cell lines (HCT116) and ovarian cancer cell lines (OVCAR-3) are given.

[2] = test system: breast cancer cells (MDA-MB-468); test: Cancer cell line growth inhibition, Sulforhodamine B assay, MDA-MB-468; assay type: cell-based; settings: Homo sapiens, read-out: Cancer Cell Line GI50 Range MDA-MB-468
Procedure: as §1, §2, §3, §4, §5

[3] = test system: ovarian cancer cells (OVCAR-3); test: Cancer cell line growth inhibition, Sulforhodamine B assay, OVCAR-3; assay type: cell-based; settings: Homo sapiens, read-out: Cancer Cell Line GI50 Range OVCAR-3
Procedure: as §1, §2, §3, §5

[4] = 16 μM ATP (Sigma cat# A7699), read-out: TTK IC50 Range (denoted with an asterisk)
[5] = MDA-MB-468, MDA-MB-468 breast cancer cell line
[6] = OVCAR-3, OVCAR-3 ovarian cancer cell line
[7] = 100 μM ATP, read-out: TTK IC50 Range
[8] = MDA-MB-468 breast cancer cell line
[9] = OVCAR-3 ovarian cancer cell line

GI50 [1] | GI50 [2, 5] | GI50 [3, 6] | IC50 (human TTK; [7]) | Structure (SMILES) | also measured
0.1 to 0.5 µM | 0.1 to 0.5 µM | 0.1 to 0.5 µM | – | COCCNc1nc(OC2CCCC2)nc2c(-c3ccc(C(=O)NC4CC4)cc3)cnn12 [Example C8] | IC50 (human TTK; [4]): < 0.1 µM
> 0.5 µM | > 0.5 µM | 0.1 to 0.5 µM | – | O=C(NC1CC1)c1ccc(-c2cnn3c(NCC4CCOCC4)nc(Nc4ccccc4)nc23)cc1Cl [Example C9] | IC50 (human TTK; [4]): < 0.1 µM
> 0.5 µM | 0.1 to 0.5 µM | > 0.5 µM | – | CC(=O)Nc1cccc(Oc2nc(NCC3CCOCC3)n3ncc(-c4ccc(C(=O)NC5CC5)c(C)c4)c3n2)c1 [Example C19] | IC50 (human TTK; [4]): < 0.1 µM
0.1 to 0.5 µM | 0.1 to 0.5 µM | 0.1 to 0.5 µM | – | Cc1cc(-c2cnn3c(NCC4CCOCC4)nc(NC4CCCCC4)nc23)ccc1C(=O)NC1CC1 [Example C22] | IC50 (human TTK; [4]): < 0.1 µM
0.1 to 0.5 µM | > 0.5 µM | > 0.5 µM | – | Cc1cc(-c2cnn3c(NCC4CCOCC4)nc(NC4CCOCC4)nc23)ccc1C(=O)NC1CC1 [Example C23] | IC50 (human TTK; [4]): < 0.1 µM
≤ 0.1 µM | 0.1 to 0.5 µM | 0.1 to 0.5 µM | – | Cc1cc(-c2cnn3c(NCCN4CCOCC4)nc(Oc4cccc(F)c4)nc23)ccc1C(=O)NC1CC1 [Example C27] | IC50 (human TTK; [4]): < 0.1 µM
> 0.5 µM | > 0.5 µM | > 0.5 µM | < 0.1 µM | Cc1cc(-c2cnn3c(NCC4CCOCC4)cc(Oc4ccc[n+]([O-])c4)nc23)ccc1C(=O)NC1CC1 [Example C30, 3-((3-(4-(cyclopropylcarbamoyl)-3-methylphenyl)-7-(((tetrahydro-2H-pyran-4-yl)methyl)amino)pyrazolo[1,5-a]pyrimidin-5-yl)oxy)pyridine-1-oxide] | –
≤ 0.1 µM | ≤ 0.1 µM | ≤ 0.1 µM | < 0.1 µM | O=C(NC1CC1)c1ccc(-c2cnn3c(NCCN4CCOCC4)cc(Oc4cccc(F)c4F)nc23)cc1Cl [Example C33, 2-chloro-N-cyclopropyl-4-(5-(2,3-difluorophenoxy)-7-((2-morpholinoethyl)amino)pyrazolo[1,5-a]pyrimidin-3-yl)benzamide] | –
≤ 0.1 µM | ≤ 0.1 µM | ≤ 0.1 µM | < 0.1 µM | O=C(NC1CC1)c1ccc(-c2cnn3c(NCCN4CCOCC4)cc(Oc4cccc(F)c4)nc23)cc1Cl [Example C34] | –
≤ 0.1 µM | ≤ 0.1 µM | ≤ 0.1 µM | < 0.1 µM | Cc1cc(-c2cnn3c(NC[C@H]4CCOC4)cc(N[C@H]4CCCC[C@H]4O)nc23)ccc1C(=O)NC1CC1 [Example C35, N-cyclopropyl-4-(5-(((1S,2R)-2-hydroxycyclohexyl)amino)-7-((((R)-tetrahydrofuran-3-yl)methyl)amino)pyrazolo[1,5-a]pyrimidin-3-yl)-2-methylbenzamide] | –
– | – | – | < 0.1 µM | CC[C@H](Nc1cc(NCCN2CCOCC2)n2ncc(-c3ccc(C(=O)NC4CC4)c(C)c3)c2n1)[C@H](C)O [Example C119] | –
– | – | – | < 0.1 µM | Cc1cc(-c2cnn3c(NCC4CCOCC4)cc(NC4CCN(C5COC5)CC4)nc23)ccc1C(=O)NC1CC1 [Example C122] | –
– | – | – | < 0.1 µM | COC(C)(C)CNc1cc(N[C@@H](C(C)C)C(C)(C)O)nc2c(-c3ccc(C(=O)NC4CC4)c(C)c3)cnn12 [Example C128] | –
– | – | – | < 0.1 µM | COC(C)(C)CNc1cc(N[C@H]2CCC[C@H]2O)nc2c(-c3ccc(C(=O)NC4CC4)c(C)c3)cnn12 [Example C129] | –
– | – | – | < 0.1 µM | Cc1cc(-c2cnn3c(NCCN4CCOCC4)cc(O[C@@H]4CCOC4)nc23)ccc1C(=O)NC1CC1 [Example C137] | –
– | – | – | < 0.1 µM | Cc1cc(-c2cnn3c(NCCCS(C)(=O)=O)cc(NC4CCOCC4)nc23)ccc1C(=O)NC1CC1 [Example C140] | –
– | – | – | 0.1 to 0.5 µM | Cc1cc(-c2cnn3c(NCC4CCOCC4)cc(N4CC[C@@H](O)C4)nc23)ccc1C(=O)NC1CC1 [Example C142] | –
– | – | – | 0.1 to 0.5 µM | Cc1cc(-c2cnn3c(NCC(C)C)cc(Oc4ccncc4)nc23)ccc1C(=O)NC1CC1 [Example C149] | –
– | – | – | 0.1 to 0.5 µM | Cc1cc(-c2cnn3c(NCC(C)C)cc(-c4cccc5ncccc45)nc23)ccc1C(=O)NC1CC1 [Example C154] | –
– | – | – | > 0.5 µM | CC(C)CNc1cc(-c2cccc3ncccc23)nc2c(-c3ccc(C(=O)NC4CC4)cc3)cnn12 [Example C155] | –
– | – | – | < 0.1 µM | Cc1cc(-c2cnn3c(NCC(C)C)cc(Nc4cccnc4)nc23)ccc1C(=O)NC1CC1 [Example C160] | –
– | – | – | < 0.1 µM | Cc1cc(-c2cnn3c(NCC4CCOCC4)cc(N4CC5(CC(O)C5)C4)nc23)ccc1C(=O)NC1CC1 [Example C162] | –
– | – | – | < 0.1 µM | Cc1cc(-c2cnn3c(NCC4CCOCC4)cc(N4CC[C@H](CO)C4)nc23)ccc1C(=O)NC1CC1 [Example C166] | –
– | – | – | < 0.1 µM | Cc1cc(-c2cnn3c(NCC4CCOCC4)cc(N4CC[C@@H](CO)C4)nc23)ccc1C(=O)NC1CC1 [Example C167] | –
– | – | – | < 0.1 µM | Cc1cc(-c2cnn3c(NCCN4CCC(O)CC4)cc(NC4CCCC4)nc23)ccc1C(=O)NC1CC1 [Example C168] | –
– | – | – | < 0.1 µM | Cc1cc(-c2cnn3c(NCCN4CCC(F)(F)CC4)cc(NC4CCCC4)nc23)ccc1C(=O)NC1CC1 [Example C184] | –
– | – | – | < 0.1 µM | Cc1cc(-c2cnn3c(NCCN4CCC(F)(F)CC4)cc(Oc4cnn(C)c4)nc23)ccc1C(=O)NC1CC1 [Example C185] | –

Structure (SMILES) | GI50 [1] | GI50 [2, 5] | GI50 [3, 6] | IC50 (human TTK; [7]) | also measured
Cc1cc(-c2cnn3c(NC[C@H]4C[C@@](C)(O)C4)cc(Oc4cccnc4)nc23)ccc1C(=O)NC1CC1 [Example C43, N-cyclopropyl-4-(7-((((1s,3s)-3-hydroxy-3-methylcyclobutyl)methyl)amino)-5-(pyridin-3-yloxy)pyrazolo[1,5-a]pyrimidin-3-yl)-2-methylbenzamide] | ≤ 0.1 µM | – | – | – | GI50 [2, 8]: ≤ 0.1 µM; GI50 [3, 9]: ≤ 0.1 µM
Cc1cc(-c2cnn3c(NC[C@H]4C[C@](C)(O)C4)cc(Oc4cccnc4)nc23)ccc1C(=O)NC1CC1 [Example C135] | ≤ 0.1 µM | – | – | – | GI50 [2, 8]: ≤ 0.1 µM; GI50 [3, 9]: 0.1 to 0.5 µM
